Data: patent publication US10813931B2, “Methods and compositions relating to the treatment of cancer” (THE BRIGHAM AND WOMEN'S HOSPITAL, INC., priority 2013, dated 2020)

Legend:
[1] = test system: CD44, Src (Y527), PRAS40 T246, Hck; experiment: 4T-1 tumor tissue western blot / IHC of CD44 and kinase phosphorylation; assay type: in vivo, mouse; settings: diminished by day 19
Description: 4-6 week old Balb/C mice (Charles River, Cambridge Mass.) were inoculated with 10^6 4 T-1 mouse mammary carcinoma cells in the left flank (Charles River, Cambridge Mass.). Mice identified with tumors were treated with docetaxel (DTX) or vehicle twice at 72 hour intervals at 10 mg/kg i.v. or 15 mg/kg i.p. and subsequently treated with dasatinib i.p. or nanoparticles i.v. 72 hours following the final DTX dose. Tumors were harvested at indicated time points and evaluated for protein phosphorylation and expression. Experimental detail provided in supplemental data.
1 million 4T-1 mouse mammary carcinoma cells suspended in 100 µL PBS were injected per left flank of 5-6 week old Balb/C (Charles River, Wilmington Mass.). DTX was dissolved in pure Ethanol at a concentration of 50 mg/ml mixed 1:1 with Polysorbate 80 (Tween 80) and brought to a final working concentration with 5% glucose in PBS. Once Tumors became palpable (˜100 mm^3), DTX or vehicle treatments were administered at 100 μL volumes. Dasatinib was dissolved in DMSO to working concentration and delivered as 50 μL injections on indicated days, 50 µL DMSO used as a control in these studies. Tumor volumes were measured by a third party unaware of treatment conditions using digital calipers (Starlett, Athol, Mass.), volumes were assessed by the following formula: (Width×Width×length)/2 and expressed as relative volume increase from day 1. Tumor homogenate was prepared by homogenization of equal weight tissue sections incubated in 3×RIPA buffer containing 2× protease/phosphatase inhibitor cocktail (Thermo Fisher, Waltham, Mass.).
Cells were generated as described above and plated in 4 chamber glass slides (BD Biosciences, San Jose Calif.) at a concentration of 100,000 cells/ml. Following treatments, cells were washed in PBS and fixed in 4% Paraformaldehyde for 30 minutes. […] Blocking was performed in 10% (v/v) Goat serum in PBS. The cells were labeled with the indicated primary antibodies at 1:100 and tagged with FITC or unconjugated followed by a secondary antibody conjugated with Alexa Fluor 488 or Alexa Fluor 594 (Invitrogen Carlsbad Calif.) at 1:250 were added 24 hours later and incubated for 90 minutes at room temperature in blocking buffer and masked with DAPI-containing hard-set mounting medium (Vector Laboratories, Burlingame Calif.). Bright field and fluorescent images were obtained using three channels on a NIKON Eclipse TI-U microscope with a 20×ELDW, 10× or 40× Plan-Apo objective lens (Nikon, Melville N.Y.). […] For histological quantification, IHC were scored blindly by a clinical pathologist based on number of cells which stain for the target protein (1-4) and multiplied by the intensity of staining as a subjective percentile. This value was expressed as IHC score to quantify the level of staining. […]

[2] = test system: MDA-MB-231 (231); experiment: CD44 surface expression by FACS in 231 cells; assay type: cell-based, human; settings: 4 hours post treatment, increasing doses
Description: MDA-MB-231, MDA-MB-468 were purchased from ATCC. For acute treatments, cells were plated at a density of 0.5-1×10^5 cells/ml and allowed to adhere for 24-48 hr. when cells reached ˜70% confluency they were treated with antitubulins at indicated concentrations for 4-24 hours and utilized for subsequent assays. To generate chemotherapy tolerant subset, cells were treated with indicated concentrations of chemotherapy (48). Following washes with PBS, adherent cells were trypsinized and re-plated at a density of 1.5-2×10^5 cells/ml and cultured in serum-containing medium. […]
Cells were cultured as indicated and fixed with 4% paraformaldehyde in PBS for 30 min at RT and blocked in 10% goat serum (v/v). Following PBS washes, cells were incubated with indicated antibodies for 60 minutes at room temperature or overnight at 4 C and analyzed by FACS (Accuri cyomteters Inc. Ann Arbor, Mich.). Cell cycle analyzed in propidium iodide solution following incubation in 70% Ethanol overnight at 4 C and following manufacturer protocol (Genscript USA Inc. Piscataway, N.J.). AnnexinV/PI was analyzed FACS following manufacturer protocol (BD, Ann Arbor Mich.). All FACS results were analyzed by FlowJo™ software following a rigorous doublet discrimination based on FSC:A vs. width as well as FSC:A vs. height (Tree Star Inc., Ashland Oreg.). […]

## CC(=O)O[C@@]12CO[C@@H]1C[C@H](O)[C@@]1(C)C(=O)[C@H](O)C3=C(C)[C@@H](OC(=O)[C@H](O)[C@@H](NC(=O)OC(C)(C)C)c4ccccc4)C[C@@](O)([C@@H](OC(=O)c4ccccc4)[C@H]21)C3(C)C [DTX, docetaxel]
[1]; DTX day 9 vs control
  Hck phosphorylation in tumor (IHC): markedly enhanced
  activated PRAS40 T246 in tumor: enhancement
  inhibitory residue of Src (Y527) phosphorylation in tumor: Reduction
[1]; DTX-treated day 9 vs control day 9
  CD44 expression in tumor tissue: significantly enhanced CD44 expression
[2]
  CD44 induction: dose-dependent manner
